Experimental data reported in patent US20060029544A1, “Receptor-binding cyclic peptides and methods of use” (The Regents of the University of California Office of …, priority 2004, published 2006).
Read-outs that look alike come from different tables or passages of the source. One block for each molecule: values may come before it.

Experiments:
[1] = system: A375M, a human melanoma which expresses αvβ3 integrin; assay: In vivo biodistribution in mice bearing A375M tumors; details: mouse
Protocol: (§1) In vivo biodistribution studies were performed in mice using A375M, a human melanoma which expresses αvβ3 integrin. MF1 nu/nu mice were given subcutaneous injections of A375M cells into the left inguinal region. Once tumors reached 4-10 mm in size, mice (n=5 mice per time point) were injected with 50 kBq of [^18F]-C7 and sacrificed at 15, 30, and 60 minutes after injection. A second group of animals (n=3) was injected with 50 kBq of [^18F]-C7, sacrificed at 30minutes after injection, and imaged using an ECAT 951R whole body PET scanner.

[2] = system: A375M, a human melanoma which expresses αvβ3 integrin; assay: PET imaging (ECAT 951R) of mice bearing A375M tumors; assay type: in vivo; details: 30 minutes after injection
Protocol: as §1

[3] = biological target: T1, α5β1 integrin (Homo sapiens, UniProt P05556+P08648); assay: ELISA: soluble α5β1-hFc binding to immobilized 50 kDa fibronectin fragment in the presence of RGD peptides
T1 construct: chimeras comprising the extracellular domain of αvβ3, αvβ5, α5β1, and αIIbβ3 linked to the Fc domain of either mouse IgG; purchased Celltech plc (supplied, no catalogue number)
T1 sequence (P08648 42-995 limits assumed): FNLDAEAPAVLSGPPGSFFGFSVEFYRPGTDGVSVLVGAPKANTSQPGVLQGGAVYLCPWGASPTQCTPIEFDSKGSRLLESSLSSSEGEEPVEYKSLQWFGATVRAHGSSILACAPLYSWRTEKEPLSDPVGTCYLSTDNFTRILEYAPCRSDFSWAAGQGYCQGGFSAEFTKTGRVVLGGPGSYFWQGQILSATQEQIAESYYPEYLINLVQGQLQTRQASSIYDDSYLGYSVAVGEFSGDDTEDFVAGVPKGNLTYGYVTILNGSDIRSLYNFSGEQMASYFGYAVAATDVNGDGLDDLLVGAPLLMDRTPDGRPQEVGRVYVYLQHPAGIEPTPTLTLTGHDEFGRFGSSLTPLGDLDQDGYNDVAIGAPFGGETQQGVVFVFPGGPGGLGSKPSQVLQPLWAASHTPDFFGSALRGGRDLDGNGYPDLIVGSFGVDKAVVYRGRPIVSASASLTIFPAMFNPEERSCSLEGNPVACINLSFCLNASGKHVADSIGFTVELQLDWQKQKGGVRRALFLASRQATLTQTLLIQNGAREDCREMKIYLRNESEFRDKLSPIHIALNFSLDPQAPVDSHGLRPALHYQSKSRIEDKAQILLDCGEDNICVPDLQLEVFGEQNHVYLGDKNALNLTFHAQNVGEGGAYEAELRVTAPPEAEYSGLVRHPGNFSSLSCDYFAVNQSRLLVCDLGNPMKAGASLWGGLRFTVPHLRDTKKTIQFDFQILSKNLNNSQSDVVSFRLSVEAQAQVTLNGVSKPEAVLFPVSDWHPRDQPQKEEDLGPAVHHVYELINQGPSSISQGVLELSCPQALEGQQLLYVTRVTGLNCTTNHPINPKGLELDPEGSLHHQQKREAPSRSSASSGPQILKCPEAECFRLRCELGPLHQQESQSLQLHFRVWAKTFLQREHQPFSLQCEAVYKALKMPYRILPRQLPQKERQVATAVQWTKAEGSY
T1 sequence (P05556 21-728 limits assumed): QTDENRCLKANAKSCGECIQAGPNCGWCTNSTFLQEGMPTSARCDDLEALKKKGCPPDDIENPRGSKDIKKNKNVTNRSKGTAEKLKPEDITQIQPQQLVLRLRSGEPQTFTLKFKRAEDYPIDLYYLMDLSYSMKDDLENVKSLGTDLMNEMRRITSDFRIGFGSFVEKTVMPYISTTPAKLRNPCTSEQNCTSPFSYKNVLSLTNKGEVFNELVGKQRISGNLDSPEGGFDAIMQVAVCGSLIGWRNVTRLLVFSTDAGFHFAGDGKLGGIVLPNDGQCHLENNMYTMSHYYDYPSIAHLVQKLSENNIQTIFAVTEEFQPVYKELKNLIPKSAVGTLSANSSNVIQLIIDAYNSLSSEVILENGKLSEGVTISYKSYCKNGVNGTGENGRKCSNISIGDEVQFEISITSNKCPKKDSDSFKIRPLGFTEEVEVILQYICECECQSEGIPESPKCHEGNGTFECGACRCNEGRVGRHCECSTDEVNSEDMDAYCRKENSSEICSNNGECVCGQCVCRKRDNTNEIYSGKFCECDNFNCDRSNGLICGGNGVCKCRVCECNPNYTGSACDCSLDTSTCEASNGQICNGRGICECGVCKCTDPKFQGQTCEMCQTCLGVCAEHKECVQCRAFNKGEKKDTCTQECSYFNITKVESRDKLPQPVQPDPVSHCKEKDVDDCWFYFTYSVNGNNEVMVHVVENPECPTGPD
Text: (§2) Four different soluble integrins were supplied by Celltech plc. Soluble forms of αvβ3, αvβ5, α5β1, and αIIbβ3 integrin were generated by constructing chimeras comprising the extracellular domain of αvβ3, αvβ5, α5β1, and αIIbβ3 linked to the Fc domain of either mouse IgG (αvβ3-mFc, αvβ5-mFc, and αIIbβ3-mFc) or human IgG (α5β1-hFc) as described by Stephens et al., Cell Adhes. Commun., 7:377-390 (2000) and Coe et al., J. Biol. Chem., 276:35854-35866 (2001). Since the four soluble integrin chimeras were supplied either as purified proteins (αvβ3-mFc and α5β1-hFc) or as unpurified hybridoma supernatants (αIIbβ3-mFc and αvβ5-mFc), it was necessary to use two types of ELISAs. […] In one type of ELISA (FIGS. 2A and 2B), the immobilized component is a 50 kDa fragment of fibronectin. In the second type of ELISA (FIGS. 2C and 2D), the immobilized component is a goat anti-mFc antibody that is used to capture chimeric proteins so that the RGD binding site of the integrin is maximally exposed. Each three-sided box in FIG. 2 represents a single well of a 96-well plate, and the components are listed in the sequence of their addition to the assay. The immobilized component at the bottom of the well is bound to the well by electrostatic interactions.
To analyze the affinity and selectively of RGD peptides for αvβ3 and α5β1, 96-well ELISA plates were coated with 100 μl of a 5 μg/ml of the 50 kDa fragment of fibronectin in PBS per well and left overnight at 4° C. The plates were washed with PBS using a Denley Wellwash 4 Mk 2. Washing was repeated twice with a 400 μl wash per well. 200 μ/well of blocking buffer (i.e., to prevent non-specific binding of proteins) was then added for 1 hour followed by a repeat washing with PBS. RGD peptides were then added at a maximum concentration of 200 μM and a preliminary screen was performed at three concentrations, 200,20, and 2 μM. 100 μl of an RGD peptide was added to each well and each assay was performed in triplicate. Purified soluble αvβ3-mFc or purified α5β1-hFc was diluted to 2 μg/ml and 15 ng/ml, respectively, in conjugate buffer and 100 μl was added to each well. The plates were incubated for 2 hours with shaking using a Luckham R100 Rotatest at approximately 150 rpm. After incubation, the plates were washed with PBS as previously described and a labeled antibody was added. For the αvβ3 assay, a horseradish peroxidase (HRP)-labeled F(ab′)2 fragment of goat anti-mouse IgG Fc was diluted 1:2000 in conjugate buffer and 100 μl was added to each well. For the α5β1 assay, an HRP-labeled F(ab′)2 fragment of goat anti-human IgG Fc was diluted 1:2000 in conjugate buffer and 100 μl was added to each well. Plates were incubated for 30 minutes with shaking followed by 2 washes with PBS. 100 μl of TMB substrate was added to each well and plates were shaken during a 10 minute color development. Plates were read using a plate spectrophotometer at 630 nm.
(§3) Two negative and two positive controls were used in both types of ELISAs. For example, the negative controls were wells that contained 50 μl of an active control peptide, integrin, and biotinylated ligand or 50 μl of the active control peptide and 50 μl of buffer. These negative control wells typically develop little to no color. […] These wells typically develop the maximum amount of color.
(§4) FIGS. 3-6 illustrate the percent binding of the vitronectin, fibronectin, or fibrinogen ligand to αvβ5, α5β1, αIIbβ3, or αvβ3 integrin in the presence of RGD peptides (i.e., linear (A), cyclic (B), or 4-[^19F]-fluorobenzoyl cyclic (C)) at different concentrations, with 100% maximum signal being the signal obtained in the absence of the peptide.

[4] = biological target: T2, αvβ5 integrin (Homo sapiens, UniProt P06756+P18084); assay: ELISA: biotinylated vitronectin binding to captured soluble αvβ5-mFc in the presence of RGD peptides
T2 construct: chimeras comprising the extracellular domain of αvβ3, αvβ5, α5β1, and αIIbβ3 linked to the Fc domain of either mouse IgG; purchased Celltech plc (supplied, no catalogue number); host or cells: unpurified hybridoma / tissue culture supernatant from secreting cells
T2 sequence (P06756 31-992 limits assumed): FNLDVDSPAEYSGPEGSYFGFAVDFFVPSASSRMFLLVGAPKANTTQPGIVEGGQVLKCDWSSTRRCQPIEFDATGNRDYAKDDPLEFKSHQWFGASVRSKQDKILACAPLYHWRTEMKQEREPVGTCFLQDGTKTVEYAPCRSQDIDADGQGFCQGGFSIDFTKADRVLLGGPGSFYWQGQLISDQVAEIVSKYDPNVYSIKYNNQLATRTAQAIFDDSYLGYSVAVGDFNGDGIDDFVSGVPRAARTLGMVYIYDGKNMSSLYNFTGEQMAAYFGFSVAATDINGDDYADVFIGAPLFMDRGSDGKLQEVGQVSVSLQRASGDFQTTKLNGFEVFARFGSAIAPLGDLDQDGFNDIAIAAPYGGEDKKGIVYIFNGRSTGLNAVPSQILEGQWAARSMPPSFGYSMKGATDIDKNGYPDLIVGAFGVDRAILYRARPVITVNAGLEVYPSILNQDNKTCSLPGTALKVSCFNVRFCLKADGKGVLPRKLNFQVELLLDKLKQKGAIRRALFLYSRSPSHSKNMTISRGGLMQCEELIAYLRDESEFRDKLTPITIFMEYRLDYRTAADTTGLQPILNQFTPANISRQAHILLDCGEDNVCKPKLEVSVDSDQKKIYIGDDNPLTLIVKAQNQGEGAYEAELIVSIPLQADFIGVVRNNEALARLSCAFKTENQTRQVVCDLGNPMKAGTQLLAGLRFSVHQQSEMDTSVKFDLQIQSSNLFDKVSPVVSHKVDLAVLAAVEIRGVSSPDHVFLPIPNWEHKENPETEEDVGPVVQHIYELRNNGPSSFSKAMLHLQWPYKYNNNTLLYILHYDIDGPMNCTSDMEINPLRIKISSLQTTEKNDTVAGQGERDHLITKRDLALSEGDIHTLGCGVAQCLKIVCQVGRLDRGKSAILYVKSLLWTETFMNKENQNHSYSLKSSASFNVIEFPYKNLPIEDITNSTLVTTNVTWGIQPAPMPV
T2 sequence (P18084 24-719 limits assumed): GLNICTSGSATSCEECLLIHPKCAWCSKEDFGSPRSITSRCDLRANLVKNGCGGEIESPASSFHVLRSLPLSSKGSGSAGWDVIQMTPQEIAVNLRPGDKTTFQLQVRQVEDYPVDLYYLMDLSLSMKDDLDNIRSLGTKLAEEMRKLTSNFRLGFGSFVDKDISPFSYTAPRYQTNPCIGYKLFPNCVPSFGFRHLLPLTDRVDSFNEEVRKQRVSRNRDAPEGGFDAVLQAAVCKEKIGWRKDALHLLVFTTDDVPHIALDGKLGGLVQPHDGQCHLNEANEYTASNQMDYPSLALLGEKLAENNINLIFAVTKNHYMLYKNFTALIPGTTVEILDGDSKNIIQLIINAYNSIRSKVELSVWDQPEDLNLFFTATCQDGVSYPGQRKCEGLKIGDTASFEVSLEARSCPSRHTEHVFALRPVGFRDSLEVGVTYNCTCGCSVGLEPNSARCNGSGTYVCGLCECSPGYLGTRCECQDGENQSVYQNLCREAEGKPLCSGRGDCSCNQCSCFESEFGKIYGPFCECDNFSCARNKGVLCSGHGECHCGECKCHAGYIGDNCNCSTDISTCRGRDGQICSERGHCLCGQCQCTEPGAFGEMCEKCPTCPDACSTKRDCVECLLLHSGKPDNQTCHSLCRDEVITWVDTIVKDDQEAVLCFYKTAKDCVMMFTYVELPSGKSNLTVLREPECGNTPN
Text: as §2
To analyze the affinity and selectively of RGD peptides for αIIbβ3 and αvβ5, 96-well ELISA plates were coated with anti-murine Fc antibody at 5 μg/ml in PBS, 100 μl per well and left overnight at 4° C. The plates were washed with PBS using a Denley Wellwash 4 Mk 2. Washing was repeated twice with a 400 μl wash per well. 200 μl/well of blocking buffer was then added for 1 hour followed by a repeat washing with PBS. 100 μl of tissue culture supernatant from cells secreting soluble αIIbβ3-mFc or αvβ5-mFc, diluted 1:2 in conjugate buffer, was added to each well. Plates were incubated with shaking for 1 hour followed by two washes with PBS. 100 μl of an RGD peptide (at concentrations of 200, 20, and 2 μM), followed by either 100 μl of biotinylated fibrinogen (at 1 μg/ml in conjugate buffer) or 100 μl of biotinylated vitronectin (at 2 μg/ml in conjugate buffer) were added to each well and incubated for 2 hours with shaking. After incubation, the plates were washed with PBS as described above. 100 μl of neutravidin-peroxidase was added to each well and the plates were incubated for 30 minutes with shaking, followed by two washes with PBS. 100 μl of TMB substrate was added to each well and the plates were shaken during color development. Plates were read using a plate spectrophotometer at 630 nm.
as §3, §4

[5] = biological target: T3, αvβ3 integrin (Homo sapiens, UniProt P05106+P06756); assay: ELISA: soluble αvβ3-mFc binding to immobilized 50 kDa fibronectin fragment in the presence of RGD peptides; details: Table 2, no unit printed (b200 gives same values in μM)
T3 construct: chimeras comprising the extracellular domain of αvβ3, αvβ5, α5β1, and αIIbβ3 linked to the Fc domain of either mouse IgG; purchased Celltech plc (supplied, no catalogue number)
T3 sequence (P06756 31-992 limits assumed): as the sequence (P06756 31-992 limits assumed) above
T3 sequence (P05106 27-718 limits assumed): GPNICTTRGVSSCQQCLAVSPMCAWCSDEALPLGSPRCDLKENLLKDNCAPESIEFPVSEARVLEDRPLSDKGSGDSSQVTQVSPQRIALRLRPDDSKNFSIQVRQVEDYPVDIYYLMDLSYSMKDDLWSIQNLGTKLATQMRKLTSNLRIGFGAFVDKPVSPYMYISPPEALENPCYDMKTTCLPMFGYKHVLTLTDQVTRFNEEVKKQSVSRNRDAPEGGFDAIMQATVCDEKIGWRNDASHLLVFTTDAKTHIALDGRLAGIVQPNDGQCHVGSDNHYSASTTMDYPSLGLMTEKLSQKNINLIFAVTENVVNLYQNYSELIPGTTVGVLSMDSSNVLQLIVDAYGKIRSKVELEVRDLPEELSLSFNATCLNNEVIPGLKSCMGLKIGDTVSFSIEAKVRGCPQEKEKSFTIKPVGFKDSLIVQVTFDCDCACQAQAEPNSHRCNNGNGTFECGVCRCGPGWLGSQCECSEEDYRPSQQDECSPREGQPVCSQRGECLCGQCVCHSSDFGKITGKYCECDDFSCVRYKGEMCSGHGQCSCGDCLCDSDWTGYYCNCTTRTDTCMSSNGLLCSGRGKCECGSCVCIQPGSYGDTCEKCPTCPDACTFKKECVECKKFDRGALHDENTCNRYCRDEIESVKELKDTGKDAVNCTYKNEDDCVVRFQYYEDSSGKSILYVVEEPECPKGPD
Text: as §2
The plates were washed with PBS using a Denley Wellwash 4 Mk 2. Washing was repeated twice with a 400 μl wash per well. […] Plates were read using a plate spectrophotometer at 630 nm.
(§5) Two negative and two positive controls were used in both types of ELISAs.
as §4

[6] = biological target: T4, αIIbβ3 integrin (Homo sapiens, UniProt P05106+P08514); assay: ELISA: biotinylated fibrinogen binding to captured soluble αIIbβ3-mFc in the presence of RGD peptides
T4 construct: chimeras comprising the extracellular domain of αvβ3, αvβ5, α5β1, and αIIbβ3 linked to the Fc domain of either mouse IgG; purchased Celltech plc (supplied, no catalogue number); host or cells: unpurified hybridoma / tissue culture supernatant from secreting cells
T4 sequence (P08514 32-993 limits assumed): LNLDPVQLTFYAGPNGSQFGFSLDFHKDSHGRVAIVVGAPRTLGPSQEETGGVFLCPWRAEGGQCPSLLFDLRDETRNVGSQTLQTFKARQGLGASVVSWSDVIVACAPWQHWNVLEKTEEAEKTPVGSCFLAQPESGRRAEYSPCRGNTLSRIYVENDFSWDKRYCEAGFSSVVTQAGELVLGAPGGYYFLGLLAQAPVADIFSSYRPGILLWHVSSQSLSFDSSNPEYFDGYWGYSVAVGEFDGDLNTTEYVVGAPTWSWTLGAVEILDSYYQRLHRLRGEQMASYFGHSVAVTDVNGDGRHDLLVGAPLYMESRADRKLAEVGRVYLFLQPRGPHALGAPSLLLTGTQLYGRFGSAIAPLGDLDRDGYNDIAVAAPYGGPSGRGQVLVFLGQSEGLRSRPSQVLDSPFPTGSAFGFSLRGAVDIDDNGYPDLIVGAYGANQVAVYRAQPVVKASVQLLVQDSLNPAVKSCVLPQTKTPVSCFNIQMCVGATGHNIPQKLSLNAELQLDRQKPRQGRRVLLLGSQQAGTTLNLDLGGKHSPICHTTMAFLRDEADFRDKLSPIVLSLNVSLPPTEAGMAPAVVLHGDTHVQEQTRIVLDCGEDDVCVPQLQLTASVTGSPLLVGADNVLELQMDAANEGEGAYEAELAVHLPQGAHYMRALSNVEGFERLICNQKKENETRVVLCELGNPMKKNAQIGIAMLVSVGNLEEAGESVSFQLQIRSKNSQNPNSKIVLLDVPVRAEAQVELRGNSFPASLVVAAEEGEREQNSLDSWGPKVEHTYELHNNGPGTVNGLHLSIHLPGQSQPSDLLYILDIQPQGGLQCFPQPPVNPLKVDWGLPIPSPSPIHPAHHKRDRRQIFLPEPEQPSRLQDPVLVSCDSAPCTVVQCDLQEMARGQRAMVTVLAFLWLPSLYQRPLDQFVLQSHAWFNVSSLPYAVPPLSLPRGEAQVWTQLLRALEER
T4 sequence (P05106 27-718 limits assumed): as the sequence (P05106 27-718 limits assumed) above
Text: as §2
The plates were washed with PBS using a Denley Wellwash 4 Mk 2. Washing was repeated twice with a 400 μl wash per well. 200 μl/well of blocking buffer was then added for 1 hour followed by a repeat washing with PBS. 100 μl of tissue culture supernatant from cells secreting soluble αIIbβ3-mFc or αvβ5-mFc, diluted 1:2 in conjugate buffer, was added to each well. […] After incubation, the plates were washed with PBS as described above. 100 μl of neutravidin-peroxidase was added to each well and the plates were incubated for 30 minutes with shaking, followed by two washes with PBS. 100 μl of TMB substrate was added to each well and the plates were shaken during color development. Plates were read using a plate spectrophotometer at 630 nm.
as §5, §4

tumor to organ ratio, heart [1]: 5.83
tumor to organ ratio, lung [1]: 2.33
tumor to organ ratio, muscle [1]: 11.67
tumor to organ ratio, skin [1]: 1.6
Molecule: 4-[^18F]-fluorobenzoyl cyclic (RGDY(OMe)K) [[^18F]-C7]
uptake in PET images [2]: distinct areas of [^18F]-C7 uptake in the lower region of the mouse

Molecule: COc1ccc(C[C@@H]2NC(=O)[C@H](CC(=O)O)NC(=O)CNC(=O)[C@H](CCCNC(=N)N)NC(=O)[C@H](CCCCNC(=O)c3ccc(F)cc3)NC2=O)cc1 [C7, 4-[^19F]-fluorobenzoyl cyclic (RGDY(OMe)K)]
fibronectin binding to α5β1, % of the maximum signal ([3]; 2 μM peptide): 47%
IC50 ([3]; text b200, read-out: IC50 for α5β1): 0.481 µM
vitronectin binding to αvβ5, % of the maximum signal ([4]; 2 μM peptide, 100% = signal without peptide): 26.1%
IC50 ([4]; text b200, read-out: IC50 for αvβ5): 1.69 µM

Molecule: N=C(N)NCCC[C@@H]1NC(=O)[C@H](CCCCNC(=O)c2ccc(F)cc2)NC(=O)[C@@H](Cc2ccccc2)NC(=O)[C@H](CC(=O)O)NC(=O)CNC1=O [C10]
IC50 [5]: 0.018 µM
IC50 ([3]; Table 2, no unit printed (b200 gives same values in μM), read-out: Mean IC50, α5β1): 1.37 µM
IC50 ([4]; Table 2, no unit printed (b200 gives same values in μM), read-out: Mean IC50, αvβ5): 6.01 µM
fibrinogen binding to αIIbβ3 ([6]; 200 nM peptide): 42.1%
fibrinogen binding to αIIbβ3, % of the maximum signal ([6]; 2 μM peptide): 21.9%
IC50 ([6]; Table 2, no unit printed (b200 gives same values in μM)): 1.23 µM
